As usually defined, the EC50 is the midpoint of the concentration-response curve. As usually defined, the IC50 is the concentration at which inhibition is half-maximal.

The structures appear in SMILES notation. Where only a bound is given, the exact number is not on record here.

The target of one assay is T1, soluble guanylate cyclase (sGC) endogenously expressed in HEK293 cells (Homo sapiens, UniProt Q02108+Q02153).
T1 construct: endogenously expressing soluble guanylate cyclase (sGC); endogenous in cells; host or cells: HEK293
T1 sequence (Q02153 1-619): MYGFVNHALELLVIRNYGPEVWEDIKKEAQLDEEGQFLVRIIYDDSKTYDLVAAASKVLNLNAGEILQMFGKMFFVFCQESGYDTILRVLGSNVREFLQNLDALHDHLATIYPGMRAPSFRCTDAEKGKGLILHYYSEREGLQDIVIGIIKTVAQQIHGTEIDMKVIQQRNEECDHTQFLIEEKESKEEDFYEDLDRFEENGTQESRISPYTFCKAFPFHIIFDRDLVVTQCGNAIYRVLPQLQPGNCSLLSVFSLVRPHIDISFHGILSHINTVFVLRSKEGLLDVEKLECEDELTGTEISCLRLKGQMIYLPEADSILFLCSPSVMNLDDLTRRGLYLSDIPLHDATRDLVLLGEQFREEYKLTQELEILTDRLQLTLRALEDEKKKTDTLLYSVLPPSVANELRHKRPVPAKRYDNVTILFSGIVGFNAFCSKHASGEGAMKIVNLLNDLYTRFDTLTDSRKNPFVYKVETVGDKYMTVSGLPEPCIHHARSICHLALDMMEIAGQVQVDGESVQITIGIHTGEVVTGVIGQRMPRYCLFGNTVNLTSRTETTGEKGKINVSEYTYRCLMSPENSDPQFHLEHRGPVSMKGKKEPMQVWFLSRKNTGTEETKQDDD
T1 sequence (Q02108 1-690): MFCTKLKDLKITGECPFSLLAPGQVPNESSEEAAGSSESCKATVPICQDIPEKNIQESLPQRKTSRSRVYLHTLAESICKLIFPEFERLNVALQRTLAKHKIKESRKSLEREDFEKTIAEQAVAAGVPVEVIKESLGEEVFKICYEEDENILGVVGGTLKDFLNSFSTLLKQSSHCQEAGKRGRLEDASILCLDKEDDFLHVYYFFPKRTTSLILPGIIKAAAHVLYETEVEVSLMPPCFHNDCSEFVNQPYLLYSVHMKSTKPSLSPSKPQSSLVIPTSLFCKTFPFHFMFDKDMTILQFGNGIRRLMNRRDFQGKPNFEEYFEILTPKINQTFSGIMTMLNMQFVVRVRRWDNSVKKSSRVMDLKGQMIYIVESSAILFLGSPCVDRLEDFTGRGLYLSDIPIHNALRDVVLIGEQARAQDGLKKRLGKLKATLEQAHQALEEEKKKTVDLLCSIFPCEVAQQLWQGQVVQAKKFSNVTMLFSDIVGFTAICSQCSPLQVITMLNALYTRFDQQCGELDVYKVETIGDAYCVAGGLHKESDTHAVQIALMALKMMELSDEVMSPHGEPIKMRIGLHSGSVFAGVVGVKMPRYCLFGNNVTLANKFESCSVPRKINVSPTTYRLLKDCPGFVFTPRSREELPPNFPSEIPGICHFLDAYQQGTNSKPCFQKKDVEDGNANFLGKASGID
The assay is described as follows: sGC-HEK-cGMP assay with LC/MS detection (whole cell). The class given is cell-based. To be noted: 10 μM DETA-NONOate, 20 min, concentration eliciting 50% of high control response (30 μM Compound Y), read-out: sGC_HEK_LC MS EC50 Abs. How it is done: Example 2: Biological Activity Measurement by the sGC-HEK-cGMP Assay, with LC/MS Detection
Human embryonic kidney cells (HEK293), endogenously expressing soluble guanylate cyclase (sGC), were used to evaluate the activity of test compounds. Compounds stimulating the sGC enzyme should cause an increase in the intracellular concentration of cGMP. HEK 293 cells were seeded in Dulbecco's Modification of Eagle's Medium supplemented with fetal bovine serum (10% final) and penicillin (100 U/mL)/streptomycin (100 μg/mL) in a 50 μL volume at a density of 1.5×10^4 cells/well in a poly-D-lysine coated 384 well flat bottom plate. Cells were incubated overnight at 37° C. in a humidified chamber with 5% CO2. Medium was aspirated and cells were washed with 1× Hank's Buffered Saline Salt Solution (50 μL). Cells were then incubated for 15 minutes at 37° C. with 50 μL of a 0.5 mM 3-isobutyl-1-methylxanthine (IBMX) solution. Test article and Diethylenetriamine NONOate (DETA-NONOate) solutions (x […] concentration for test article solution and 10 μM concentration for DETA-NONOate solution; wherein x is one of the following concentrations);
were then added to the assay mixture and the resulting mixture incubated at 37° C. for 20 minutes. After the 20 minute incubation, the assay mixture was aspirated and 10% acetic acid containing 150 ng/mL+3-cGMP (internal standard for LCMS) (50 μL) was added to the cells. The plate was incubated at 4° C. for 30 minutes in the acetic acid solution to stop the reaction and lyse the cells. The plates were then centrifuged at 1,000 g for 3 minutes at 4° C. and the supernatant transferred to a clean reaction plate for LCMS analysis.
cGMP concentrations were determined from each sample using the LCMS conditions below (Table 2) and calculated standard curve. The standard curve was prepared in 10% acetic acid with 150 ng/mL+3cGMP (isotopically labelled cGMP with a weight 3 units higher than wild type) with the following final concentrations of cGMP in ng/mL: 1, 5, 10, 50, 100, 250, 500, 1000, 2000.
Data were normalized to a high control using the following equation: 100*(Sample−Low Control)/(High Control−Low Control), where the low control is the average of 16 samples treated with 1% DMSO, and the high control is the average of 16 samples treated with 30 μM of Compound Y depicted below. Data were fit using a 4-parameter fit (log(agonist) vs. response variable slope) using GraphPad Prism Software v.5. n=2 for all compounds. The Absolute EC50 was interpolated from the curve fit and is defined as the concentration at which a given compound elicits 50% of the high control response. Compounds failing to elicit a minimum response of 50% are reported as >30 μM. For compounds run in duplicate or n higher than 2, the result herein given is the geometric mean of the several results obtained.
For the molecule `CC1(C(=O)NC2CC2)C(=O)Nc2nc(-c3cc(OC(F)F)n(CCC(F)(F)C(F)(F)F)n3)nc(N)c21` (centres unmarked) [Compound I-50], the half-maximal effective concentration (EC50) was not below 1000 nM. The same measure, in the same setting: the same measure for `CCOC(=O)C1(C)C(=O)Nc2nc(-c3cc(OC(F)F)n(Cc4cccc(F)c4F)n3)nc(N)c21` (centres unmarked) [Compound I-52]: 101 to 1000 nM; for `CC1(C(N)=O)C(=O)Nc2nc(-c3cc(OC(F)F)n(Cc4cccc(F)c4F)n3)nc(N)c21` (centres unmarked) [Compound I-53]: 101 to 1000 nM. Still for that read-out and setting: the same measure for `CC1(C(=O)NC2CC2)C(=O)Nc2nc(-c3cc(OC(F)F)n(Cc4cccc(F)c4F)n3)nc(N)c21` (centres unmarked) [Compound I-54]: 101 to 1000 nM. On to `CCOC(=O)C1(C)C(=O)Nc2nc(-c3cc(OC(F)F)n(Cc4ccc(F)cc4F)n3)nc(N)c21` (centres unmarked) [Compound I-55], for which the EC50 fell in the range of 101 to 1000 nM. With `CCOC(=O)C1(C)C(=O)Nc2nc(-c3cc(OC(F)F)n(CCC(F)(F)C(F)(F)F)n3)nc(N)c21` (centres unmarked) [Compound I-57], the EC50 is not below 1000 nM. On the same count and under the same terms, the same measure for `Fc1cnc(-c2cc(OC(F)F)n(Cc3cccc(F)c3F)n2)nc1` [Compound I-59]: not below 1000 nM.

Turning to `COc1cc(-c2ncc(F)c(NC[C@@H](C(=O)O)C(C)C)n2)nn1Cc1ccccc1F` [Compound I-60], the EC50 lay in the range of 101 to 1000 nM. On the same count and under the same terms, for `COc1cc(-c2ncc(F)c(N3CCC(O)(CO)CC3)n2)nn1Cc1ccccc1F` [Compound I-61] the value was not below 1000 nM; for `COc1cc(-c2ncc(F)c(N3CCNC(=O)C3)n2)nn1Cc1ccccc1F` [Compound I-62], not below 1000 nM.

Turning to `COc1cc(-c2ncc(F)c(NCC(O)CO)n2)nn1Cc1ccccc1F` (centres unmarked) [Compound I-64], the EC50 was not below 1000 nM.

Turning to `COc1cc(-c2ncc(F)c(NC(c3nnn[nH]3)C(C)C)n2)nn1Cc1ccccc1F` (centres unmarked) [Compound I-65], the concentration giving a half-maximal response (EC50) was not below 1000 nM.

As for `COc1cc(-c2ncc(F)c(N(C)CC3(C(=O)O)CCCC3)n2)nn1Cc1ccccc1F` [Compound I-66], the EC50 lay in the range of 101 to 1000 nM. Turning to `COc1cc(-c2ncc(F)c(N3CCC(C(=O)O)(C(C)C)CC3)n2)nn1Cc1ccccc1F` [Compound I-67], the EC50 was 101 to 1000 nM. In the case of `COc1cc(-c2ncc(F)c(N3CCC(C)(C(=O)O)CC3)n2)nn1Cc1ccccc1F` [Compound I-68], the EC50 lay in the range of 101 to 1000 nM. As to `COc1cc(-c2ncc(F)c(NCCS(N)(=O)=O)n2)nn1Cc1ccccc1F` [Compound I-69], the EC50 was not below 1000 nM. The same measure, in the same setting: the same measure for `COc1cc(-c2ncc(F)c(N3CCC[C@H](C)[C@@H]3C(=O)O)n2)nn1Cc1ccccc1F` [Compound I-70]: 101 to 1000 nM; for `CC1(C(N)=O)C(=O)Nc2nc(-c3cc(OC(F)F)n(Cc4ccccc4F)n3)nc(N)c21` (centres unmarked) [Compound I-71]: 101 to 1000 nM.

For another assay, the system named is Guinea pig tracheal smooth muscle (GPTSM).
Assay: not given
To be noted: guinea pig tracheal strips, sub-maximal EFS; 95% Cl 0.78-0.94; read-out: IC50, inhibition of baseline EFS-induced contraction; cited from earlier work.
With `CC(C)[N+]1(C)[C@@H]2CC[C@H]1C[C@@H](OC(=O)C(CO)c1ccccc1)C2` (some centres unmarked) [Ipratropium bromide], the IC50 is 0.86 nM.

The subject of a further assay is lambs with acute pulmonary hypertension (U-46619).
Assay: not given
To be noted: after inhaling microparticles; cited from earlier work.
`Nc1nc(-c2nn(Cc3ccccc3F)c3ncccc23)nc(N)c1N1CCOCC1` [BAY 41-8543]: the “magnitude and duration of pulmonary vasodilation induced by iNO” value is recorded as “augmented”.

The same assay, now with this note: inhaled microparticles, after intravenous ODQ; cited from earlier work.
In the case of `O=C(O)CCCCN(CCc1ccccc1OCc1ccc(CCc2ccccc2)cc1)Cc1ccc(C(=O)O)cc1` [BAY 58-2667], the “pulmonary vasodilation and transpulmonary cGMP release after treatment with ODQ” value was “greatly enhanced”.

The same assay, now with this note: inhaled microparticles, awake lambs, U-46619 infusion; cited from earlier work.
Consider `Nc1nc(-c2nn(Cc3ccccc3F)c3ncccc23)ncc1C1CC1` [BAY 41-2272], for which the “effect on mean arterial pressure” value is given as “without significant effect on mean arterial pressure”, the pulmonary vasodilation result is recorded as “dose dependent pulmonary vasodilation” and the “transpulmonary cGMP release” value is given as “increased transpulmonary cGMP release”.

On to `Nc1nc(-c2nn(Cc3ccccc3F)c3ncccc23)nc(N)c1N1CCOCC1` [BAY 41-8543], for which the “effect on mean arterial pressure” value is “without significant effect on mean arterial pressure”, the pulmonary vasodilation entry is reported as “dose dependent pulmonary vasodilation” and the “transpulmonary cGMP release” value is listed as “increased transpulmonary cGMP release”. Consider `O=C(O)CCCCN(CCc1ccccc1OCc1ccc(CCc2ccccc2)cc1)Cc1ccc(C(=O)O)cc1` [BAY 58-2667], for which the “effect on mean arterial pressure” value was “without significant effect on mean arterial pressure”, the pulmonary vasodilation result is “dose dependent pulmonary vasodilation” and the “transpulmonary cGMP release” value is “increased transpulmonary cGMP release”.

Staying with this assay, now noted: inhaled microparticles, awake lambs; cited from earlier work.
Regarding `Nc1nc(-c2nn(Cc3ccccc3F)c3ncccc23)nc(N)c1N1CCOCC1` [BAY 41-8543], the systemic arterial oxygenation result is listed as “increased systemic arterial oxygenation”. In the case of `O=C(O)CCCCN(CCc1ccccc1OCc1ccc(CCc2ccccc2)cc1)Cc1ccc(C(=O)O)cc1` [BAY 58-2667], the systemic arterial oxygenation entry was “increased systemic arterial oxygenation”.

A further assay relates to patients with BMD.
Assay: not given
To be noted: single oral dose of 20 mg, double-blind randomized placebo-controlled crossover trial; cited from earlier work.
`CN1CC(=O)N2[C@H](c3ccc4c(c3)OCO4)c3[nH]c4ccccc4c3C[C@@H]2C1=O` [tadalafil]: the “normal blood flow regulation” value is “restored in eight of nine patients”.

In a further assay the test system is obese mice.
Assay: not given
To be noted: cited from earlier work.
As to `O=C(O)CCCCN(CCc1cc(F)ccc1OCc1ccc(-c2ccc(C(F)(F)F)cc2)cc1)Cc1ccc(C(=O)O)cc1` [BAY 60-2770], the “effect on overactive bladder” value is listed as “ameliorates overactive bladder in obese mice”.

For another assay, the system named is NO-deficient rats.
Assay: not given
To be noted: cited from earlier work.
`Nc1nc(-c2nn(Cc3ccccc3F)c3ncccc23)ncc1C1CC1` [BAY-2272]: the “effect on bladder dysfunction” value is “protective effects”.

The values above are taken from US20210214364A1, “sGC STIMULATORS” (Cyclerion Therapeutics, Inc., priority 2013, published 2021).
